These results are taken from ChEMBL document CHEMBL4020754, “Isolation of the antibiotic pseudopyronine B and SAR evaluation of C3/C6 alkyl analogs” (Bioorg Med Chem Lett, 2017).

What all share (type): functional
The subject of one assay is Escherichia coli. Description: Antibacterial activity against Escherichia coli ATCC 15022 measured after 24 hrs. As to conditions: ATCC 15022, 24 h.
The next assay relates to Bacillus subtilis. Description: Antibacterial activity against Bacillus subtilis ATCC 11774 measured after 24 hrs. As to conditions: ATCC 11774, 24 h.
In a further assay the test system is Staphylococcus aureus. Description: Antibacterial activity against Staphylococcus aureus ATCC 29213 measured after 24 hrs. As to conditions: ATCC 29213, 24 h.
The next assay concerns Pseudomonas aeruginosa. Description: Antibacterial activity against Pseudomonas aeruginosa ATCC 9027 measured after 24 hrs. As to conditions: ATCC 9027, 24 h.

Molecules are shown by their SMILES. ≈ marks a conversion by molar mass, not a printed value.

As usually defined, the IC50 is the point on the concentration scale where inhibition reaches its midpoint. Read a high IC50 as lower potency.

With `CCCCc1c(O)cc(CCC)oc1=O`, the IC50 in the assay with Escherichia coli is greater than 1000 µg/mL; with Bacillus subtilis it was 46 µg/mL (≈ 219 µM); with Staphylococcus aureus it was 33 µg/mL (≈ 157 µM); in the assay with Pseudomonas aeruginosa, greater than 1000 µg/mL.

Turning to `CCCCCCCCCc1c(O)cc(CCCCCCCC)oc1=O`, the IC50 with Escherichia coli, in the assay with Bacillus subtilis, with Staphylococcus aureus and in the assay on Pseudomonas aeruginosa was greater than 1000 µg/mL throughout.

Turning to `CCCCCCCc1c(O)cc(CCCCCC)oc1=O`, the IC50 is greater than 1000 µg/mL in the assay on Escherichia coli, 0.7 µg/mL (≈ 2.38 µM) in the assay with Bacillus subtilis, 0.04 µg/mL (≈ 0.136 µM) in the assay on Staphylococcus aureus and greater than 1000 µg/mL in the assay on Pseudomonas aeruginosa.

`CCCCCCc1c(O)cc(CCCCC)oc1=O`: the IC50 with Escherichia coli is greater than 1000 µg/mL; in the assay with Bacillus subtilis, 3.3 µg/mL (≈ 12.4 µM); in the assay with Staphylococcus aureus it was 2.4 µg/mL (≈ 9.01 µM); in the assay on Pseudomonas aeruginosa, greater than 1000 µg/mL.

For `CCCCC(=O)c1c(O)cc(CCCC)oc1=O`, the IC50 in the assay with Escherichia coli was 223 µg/mL (≈ 884 µM); in the assay with Bacillus subtilis, 227 µg/mL (≈ 900 µM); with Staphylococcus aureus, 24 µg/mL (≈ 95.1 µM); with Pseudomonas aeruginosa it was greater than 1000 µg/mL.

For `CCCC(=O)c1c(O)cc(CCC)oc1=O`, the IC50 is 248 µg/mL (≈ 1110 µM) in the assay on Escherichia coli, 1000 µg/mL (≈ 4460 µM) with Bacillus subtilis, 46 µg/mL (≈ 205 µM) in the assay with Staphylococcus aureus and greater than 1000 µg/mL in the assay on Pseudomonas aeruginosa.

Turning to `CCCCCCC(=O)c1c(O)cc(CCCCCC)oc1=O`, the IC50 with Escherichia coli was greater than 1000 µg/mL; in the assay on Bacillus subtilis it was 3.5 µg/mL (≈ 11.3 µM); in the assay with Staphylococcus aureus, 1.5 µg/mL (≈ 4.86 µM); in the assay with Pseudomonas aeruginosa it was greater than 1000 µg/mL.

In the case of `CCCCCCCCc1c(O)cc(CCCCCCC)oc1=O`, the 50% inhibitory concentration (IC50) in the assay with Escherichia coli was greater than 1000 µg/mL; in the assay with Bacillus subtilis, 24 µg/mL (≈ 74.4 µM); in the assay on Staphylococcus aureus, greater than 1000 µg/mL; in the assay with Pseudomonas aeruginosa it was greater than 1000 µg/mL.

On to `CCc1c(O)cc(C)oc1=O`, for which the IC50 with Escherichia coli was 300 µg/mL (≈ 1950 µM); in the assay with Bacillus subtilis it was greater than 1000 µg/mL; with Staphylococcus aureus it was greater than 1000 µg/mL; in the assay with Pseudomonas aeruginosa, greater than 1000 µg/mL.

With `CCCCCC(=O)c1c(O)cc(CCCCC)oc1=O`, the IC50 in the assay with Escherichia coli was greater than 1000 µg/mL; with Bacillus subtilis it was 21 µg/mL (≈ 74.9 µM); with Staphylococcus aureus, 3.8 µg/mL (≈ 13.6 µM); with Pseudomonas aeruginosa, greater than 1000 µg/mL.

Regarding `CCCCCCCCC(=O)c1c(O)cc(CCCCCCCC)oc1=O`, the IC50 in the assay with Escherichia coli, in the assay with Bacillus subtilis, in the assay with Staphylococcus aureus and in the assay on Pseudomonas aeruginosa was greater than 1000 µg/mL in each case.

As to `CCCc1c(O)cc(CC)oc1=O`, the IC50 is 278 µg/mL (≈ 1530 µM) with Escherichia coli, 203 µg/mL (≈ 1110 µM) in the assay with Bacillus subtilis, 244 µg/mL (≈ 1340 µM) with Staphylococcus aureus and greater than 1000 µg/mL with Pseudomonas aeruginosa.

As for `CCCCCCCc1cc(O)c(CCCCCC)c(=O)o1` [PSEUDOPYRONINES B], the IC50 with Escherichia coli is greater than 1000 µg/mL; in the assay with Bacillus subtilis, 0.3 µg/mL (≈ 1.02 µM); with Staphylococcus aureus, 0.1 µg/mL (≈ 0.34 µM); in the assay with Pseudomonas aeruginosa, greater than 1000 µg/mL.

Consider `CCCCCCCC(=O)c1c(O)cc(CCCCCCC)oc1=O`, for which the half-inhibitory concentration (IC50) with Escherichia coli is greater than 1000 µg/mL; with Bacillus subtilis, 27 µg/mL (≈ 80.2 µM); in the assay on Staphylococcus aureus it was 48 µg/mL (≈ 143 µM); in the assay on Pseudomonas aeruginosa, greater than 1000 µg/mL.

On to `CCC(=O)c1c(O)cc(CC)oc1=O`, for which the IC50 with Escherichia coli was 257 µg/mL (≈ 1310 µM); in the assay on Bacillus subtilis it was greater than 1000 µg/mL; in the assay on Staphylococcus aureus, 116 µg/mL (≈ 591 µM); in the assay on Pseudomonas aeruginosa it was greater than 1000 µg/mL.

`CCCCCc1c(O)cc(CCCC)oc1=O`: the IC50 with Escherichia coli was greater than 1000 µg/mL; in the assay on Bacillus subtilis, 23 µg/mL (≈ 96.5 µM); with Staphylococcus aureus it was 4.6 µg/mL (≈ 19.3 µM); in the assay with Pseudomonas aeruginosa it was greater than 1000 µg/mL.
